Where a SMILES comes first, the peptide text is derived from it. [ ]: non-standard residue; d: D form. Ac6c = NC1(C(=O)O)CCCCC1; Ac5c = NC1(C(=O)O)CCCC1; Sar = CNCC(=O)O
Tests used:
Assay type in all cases: cell-based
rat AT1aR [1] = molecular target: T1, rat AT1aR (Rattus norvegicus, UniProt P25095); assay: IP1 accumulation assay (IP1 G-protein assay), rat AT1aR; conditions: for Emax: read-out: Span (relative to hAngII)
T1 sequence (P25095 1-359): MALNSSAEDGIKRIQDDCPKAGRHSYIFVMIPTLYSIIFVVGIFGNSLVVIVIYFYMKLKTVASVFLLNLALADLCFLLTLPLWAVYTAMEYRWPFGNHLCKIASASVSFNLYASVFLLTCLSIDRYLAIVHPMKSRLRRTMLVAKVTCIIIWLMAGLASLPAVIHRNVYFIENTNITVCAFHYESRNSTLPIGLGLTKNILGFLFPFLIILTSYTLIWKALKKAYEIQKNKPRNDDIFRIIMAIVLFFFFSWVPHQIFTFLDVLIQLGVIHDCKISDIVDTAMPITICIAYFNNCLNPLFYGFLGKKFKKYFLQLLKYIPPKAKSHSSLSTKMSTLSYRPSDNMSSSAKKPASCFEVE
Description: (§1) A secondary measure of G protein coupling efficacy was also performed. IP3 is generated by activation of phospholipase C by Gα-q. IP3 is degraded to IP1, which can be forced to accumulate in cells by blocking degradation with lithium chloride. Thus we measured accumulation of IP1 to determine ligand efficacy for G protein activation.
(§2) IP1 accumulation generated by human and rat angiotensin 2 type 1 receptor (human AT1R and rat AT1aR, respectively) was measured with IP-One Tb kits purchased from Cisbio and used per the manufacturer's instructions. Clonal stably transfected cell lines expressing human AT1TR or rat AT1aR were used for all experiments.
(§3) For assays, 4,000-8,000 cells were seeded per well in 384-well small-volume microplates “HiBase” small-volume plate in volumes of 20 uL and allowed to grow overnight at 37° C. in 5% CO2. Cell growth media was then replaced with stimulation buffer supplied by Cisbio containing 50 mM lithium chloride. […] For agonist detection, peptides were then further diluted in stimulation buffer to add peptide to the cells to reach final concentrations ranging from 100 uM to 1 pM. Following addition of peptides, cells were incubated at 37° C. in 5% CO2 for 30 minutes and then lysed with 4 uL of pre-mixed HTRF IP-One reagents diluted per manufacturer's instructions (Cisbio). Microplates were incubated for 60-90 minutes at room temperature and then time-resolved fluorescence intensities were measured using a PHERAstar Plus microplate reader from BMG Labtech. IP1 accumulation was measured as change in ratio of time-resolved fluorescent intensities measured at 665 nm and 620 nm.

rat AT1aR [2] = molecular target: T1, rat AT1aR; assay: beta-arrestin2 recruitment assay (PathHunter), rat AT1aR; conditions: for Emax: 1 h, read-out: Span (relative to hAngII)
Description: (§4) The proximal event in β-arrestin function mediated by GPCRs is recruitment to receptors following ligand binding and receptor phosphorylation by GRK's. Thus, the measure of β-arrestin recruitment was used to determine ligand efficacy for β-arrestin function.
(§5) B-arrestin-2 recruitment to the human and rat angiotensin 2 type 1 receptor (human AT1R and rat AT1aR, respectively) was measured with the PathHunter™ μl-arrestin assay (DiscoveRx Corporation, Fremont Calif.). Cells, plasmid(s), and detection reagent(s) were purchased from DiscoveRx, and assays were performed per manufacturer's instructions. Human AT1R and rat AT1aR were cloned into the pCMV-ProLink vector, verified by sequencing, and transfected into PathHunter β-arrestin HEK293 cells. Stably transfected clonal cell lines were selected with Hygromycin and G418. These clonal cell lines were used for all experiments.
(§6) For assays, 4,000-8,000 cells were seeded per well in 384-well microplates “HiBase” small-volume plate in volumes of 20 uL and grown overnight in the incubator (37° C., 5% CO2, saturated humidity). Peptides were dissolved in DMSO to a concentration of 10 mM. Peptides were then further diluted in assay buffer (Hank's balanced salt solution with 20 mM HEPES) to add peptide to the cells to reach final concentrations ranging from 100 μM to 1 pM. Cells were then incubated for 60 minutes at 37° C. in 5% CO2, followed by addition of 2 μL of PathHunter Detection Reagent to each well. The microplates were then incubated at room temperature for 60 minutes, and then luminescence was measured using a PHERAstar Plus microplate reader from BMG Labtech. B-arrestin-2 recruitment to receptors was measured as relative luminescence intensity expressed in arbitrary units.

human AT1R [3] = molecular target: T2, human AT1R (Homo sapiens, UniProt P30556); assay: beta-arrestin2 recruitment assay (PathHunter), human AT1R; conditions: for Emax: 1 h, read-out: Span (relative to hAngII)
T2 sequence (P30556 1-359): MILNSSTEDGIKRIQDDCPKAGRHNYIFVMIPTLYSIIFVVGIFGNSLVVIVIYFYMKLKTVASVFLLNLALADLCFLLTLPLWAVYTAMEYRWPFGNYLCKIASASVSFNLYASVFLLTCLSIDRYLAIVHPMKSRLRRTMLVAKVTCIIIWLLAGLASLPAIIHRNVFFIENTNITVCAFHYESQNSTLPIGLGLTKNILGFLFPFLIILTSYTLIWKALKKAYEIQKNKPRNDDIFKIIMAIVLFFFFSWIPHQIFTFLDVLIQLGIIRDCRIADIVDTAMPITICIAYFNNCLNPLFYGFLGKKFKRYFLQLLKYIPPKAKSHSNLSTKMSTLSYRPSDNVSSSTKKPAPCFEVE
Description: as §4, §5, §6

human AT1R [4] = molecular target: T2, human AT1R; assay: IP1 accumulation assay (IP1 G-protein assay), human AT1R; conditions: for Emax: read-out: Span (relative to hAngII)
Description: as §1, §2, §3

Compound	EC50 (rat AT1aR [1]; read-out: EC50)	Emax (rat AT1aR [1])	EC50 (rat AT1aR [1]; read-out: pEC50 (converted))	Emax (rat AT1aR [2])	EC50 (rat AT1aR [2]; read-out: EC50)	EC50 (rat AT1aR [2]; read-out: pEC50 (converted))	Emax (human AT1R [3])	EC50 (human AT1R [3]; read-out: EC50)	EC50 (human AT1R [3]; read-out: pEC50 (converted))	EC50 (human AT1R [4]; read-out: EC50)	Emax (human AT1R [4])	EC50 (human AT1R [4]; read-out: pEC50 (converted))
CNCC(=O)N[C@@H](CCCNC(=N)N)C(=O)N[C@H](C(=O)N[C@@H](Cc1ccc(O)cc1)C(=O)NC1(C(=O)N[C@@H](Cc2c[nH]cn2)C(=O)N2CCC[C@H]2C(=O)N[C@@H](Cc2c[nH]c3ccccc23)C(=O)O)CCCCC1)C(C)C [SEQ ID NO: 54, Sar-Arg-Val-Tyr-cyHex-His-Pro-Trp] (H-[Sar]RVY[Ac6c]HPW-OH)	> 0.6 nM	< 104%	> 0.631 nM	< 105%	> 3.2 nM	> 3.16 nM	< 101%	> 3.2 nM	> 3.16 nM	> 1.3 nM	< 103%	> 0.631 nM
CNCC(=O)N[C@@H](CCCNC(=N)N)C(=O)N[C@H](C(=O)N[C@@H](Cc1ccc(O)cc1)C(=O)NC1(C(=O)N[C@@H](Cc2c[nH]cn2)C(=O)N2CCC[C@H]2C(=O)N[C@@H](CC(C)C)C(=O)O)CCCCC1)C(C)C [SEQ ID NO: 12, Sar-Arg-Val-Tyr-cyHex-His-Pro-Leu] (H-[Sar]RVY[Ac6c]HPL-OH)	> 0.6 nM	< 104%	> 0.631 nM	< 105%	> 3.2 nM	> 3.16 nM	< 101%	> 3.2 nM	> 3.16 nM	> 1.3 nM	< 103%	> 0.631 nM
CNCC(=O)N[C@@H](CCCNC(=N)N)C(=O)N[C@H](C(=O)N[C@@H](Cc1ccc(O)cc1)C(=O)NC1(C(=O)N[C@@H](Cc2c[nH]cn2)C(=O)N2CCC[C@H]2C(=O)N[C@H](C(=O)O)[C@@H](C)O)CCCCC1)C(C)C [SEQ ID NO: 14, Sar-Arg-Val-Tyr-cyHex-His-Pro-Thr] (H-[Sar]RVY[Ac6c]HPT-OH)	> 0.6 nM		> 0.631 nM	< 105%	> 3.2 nM	> 3.16 nM	< 101%	> 3.2 nM	> 3.16 nM	> 1.3 nM		> 0.631 nM
CNCC(=O)N[C@@H](CCCNC(=N)N)C(=O)N[C@H](C(=O)N[C@@H](Cc1ccc(O)cc1)C(=O)NC1(C(=O)N[C@@H](Cc2c[nH]cn2)C(=O)N2CCC[C@H]2C(=O)N[C@@H](Cc2ccccc2)C(=O)O)CCCC1)C(C)C [SEQ ID NO: 24, Sar-Arg-Val-Tyr-cyPen-His-Pro-Phe] (H-[Sar]RVY[Ac5c]HPF-OH)	> 0.6 nM	< 104%	> 0.631 nM	< 105%	> 3.2 nM	> 3.16 nM	> 101%	> 3.2 nM	> 3.16 nM	< 1.3 nM	> 103%	> 0.631 nM
CC[C@H](C)[C@H](NC(=O)[C@@H]1CCCN1C(=O)[C@H](Cc1c[nH]cn1)NC(=O)C1(NC(=O)[C@H](Cc2ccc(O)cc2)NC(=O)[C@@H](NC(=O)[C@H](CCCNC(=N)N)NC(=O)CNC)C(C)C)CCCC1)C(=O)O [SEQ ID NO: 18, Sar-Arg-Val-Tyr-cyPen-His-Pro-Ile] (H-[Sar]RVY[Ac5c]HPI-OH)		< 104%		< 105%			< 101%				< 103%	
CNCC(=O)N[C@@H](CCCNC(=N)N)C(=O)N[C@H](C(=O)N[C@@H](Cc1ccc(O)cc1)C(=O)NC1(C(=O)N[C@@H](Cc2c[nH]cn2)C(=O)N2CCC[C@H]2C(=O)N[C@@H](Cc2ccc(O)cc2)C(=O)O)CCCCC1)C(C)C [SEQ ID NO: 55, Sar-Arg-Val-Tyr-cyHex-His-Pro-Tyr] (H-[Sar]RVY[Ac6c]HPY-OH)	> 0.6 nM	< 104%	> 0.631 nM	< 105%	> 3.2 nM	> 3.16 nM	< 101%	> 3.2 nM	> 3.16 nM	> 1.3 nM	< 103%	> 0.631 nM
CNCC(=O)N[C@@H](CCCNC(=N)N)C(=O)N[C@H](C(=O)N[C@@H](Cc1ccc(O)cc1)C(=O)NC1(C(=O)N[C@@H](Cc2c[nH]cn2)C(=O)N2CCC[C@H]2C(=O)N2CCC[C@H]2C(=O)O)CCCCC1)C(C)C [SEQ ID NO: 39, Sar-Arg-Val-Tyr-cyHex-His-Pro-Pro] (H-[Sar]RVY[Ac6c]HPP-OH)	> 0.6 nM	< 104%	> 0.631 nM	< 105%	> 3.2 nM	> 3.16 nM	< 101%	> 3.2 nM	> 3.16 nM	> 1.3 nM	< 103%	> 0.631 nM
CNCC(=O)N[C@@H](CCCNC(=N)N)C(=O)N[C@H](C(=O)N[C@@H](Cc1ccc(O)cc1)C(=O)NC1(C(=O)N[C@@H](Cc2c[nH]cn2)C(=O)N2CCC[C@H]2C(=O)N[C@@H](C)C(=O)O)CCCC1)C(C)C [SEQ ID NO: 3, Sar-Arg-Val-Tyr-cyPen-His-Pro-Ala]	> 0.6 nM		> 0.631 nM	< 105%	> 3.2 nM	> 3.16 nM	< 101%	> 3.2 nM	> 3.16 nM	> 10000 nM		> 0.631 nM
CNCC(=O)N[C@@H](CCCNC(=N)N)C(=O)N[C@H](C(=O)N[C@@H](Cc1ccc(O)cc1)C(=O)NC1(C(=O)N[C@@H](Cc2c[nH]cn2)C(=O)N2CCC[C@H]2C(=O)N[C@H](C(=O)O)[C@@H](C)O)CCCC1)C(C)C [SEQ ID NO: 21, Sar-Arg-Val-Tyr-cyPen-His-Pro-Thr] (H-[Sar]RVY[Ac5c]HPT-OH)	> 0.6 nM	< 104%	> 0.631 nM	< 105%	> 3.2 nM	> 3.16 nM	< 101%	> 3.2 nM	> 3.16 nM	> 1.3 nM		> 0.631 nM
CNCC(=O)N[C@@H](CCCNC(=N)N)C(=O)N[C@H](C(=O)N[C@@H](Cc1ccc(O)cc1)C(=O)N1CCC[C@H]1C(=O)N[C@@H](Cc1c[nH]cn1)C(=O)N1CCC[C@H]1C(=O)N[C@H](C)C(=O)O)C(C)C [SEQ ID NO: 60, Sar-Arg-Val-Tyr-Pro-His-Pro-D-Ala] (H-[Sar]RVYPHP[dA]-OH)	> 0.6 nM	< 104%	> 0.631 nM	< 105%	> 3.2 nM	> 3.16 nM	< 101%	> 3.2 nM	> 3.16 nM	> 1.3 nM	< 103%	> 0.631 nM
CNCC(=O)N[C@@H](CCCNC(=N)N)C(=O)N[C@H](C(=O)N[C@@H](Cc1ccc(O)cc1)C(=O)N1CCC[C@H]1C(=O)N[C@@H](Cc1c[nH]cn1)C(=O)N1CCC[C@H]1C(=O)N[C@@H](CCSC)C(=O)O)C(C)C [SEQ ID NO: 9, Sar-Arg-Val-Tyr-Pro-His-Pro-Met] (H-[Sar]RVYPHPM-OH; N-terminus and C-terminus assumed)		< 104%		< 105%			< 101%				< 103%	

Reference: US8946142B2, “Beta-arrestin effectors and compositions and methods of use thereof” (Trevena, Inc., priority 2012, dated 2015)
